Test results as given in ChEMBL document CHEMBL1909046, “DrugMatrix in vitro pharmacology data”.

Tests used:
[1] = biological target: T1, Neuropeptide Y receptor type 1 (Homo sapiens, UniProt P25929); assay type: cell membranes, Membrane; details: sk-n-mc; further: in other assays of this panel Not Active means under 50% inhibition at 10 µM
T1 sequence (P25929 whole entry): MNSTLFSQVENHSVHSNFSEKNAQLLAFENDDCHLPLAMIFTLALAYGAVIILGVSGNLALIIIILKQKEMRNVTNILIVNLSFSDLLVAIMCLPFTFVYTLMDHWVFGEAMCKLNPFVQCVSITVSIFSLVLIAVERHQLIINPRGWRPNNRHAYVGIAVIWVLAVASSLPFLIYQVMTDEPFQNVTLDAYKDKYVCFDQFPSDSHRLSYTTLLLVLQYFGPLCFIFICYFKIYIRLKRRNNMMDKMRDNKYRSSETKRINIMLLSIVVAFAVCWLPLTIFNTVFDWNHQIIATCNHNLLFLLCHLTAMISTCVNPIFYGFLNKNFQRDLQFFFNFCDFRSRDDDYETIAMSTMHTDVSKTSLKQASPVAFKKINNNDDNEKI

Glycine receptor = Glycine receptor (Rattus norvegicus, UniProt P22771+P24524+P07727+P20781); assay type: cell membranes, Wistar, Spinal cord, Membrane; further: in other assays of this panel Not Active means under 50% inhibition at 10 µM
[2] = DRUGMATRIX: Calcium Channel Type L, Benzothiazepine radioligand binding (ligand: [3H] Diltiazem); assay type: cell membranes, Rattus norvegicus, Wistar, Brain, Membrane; details: Not Active = under 50% inhibition at 10 µM
[3] = biological target: T2, 3-hydroxy-3-methylglutaryl-coenzyme A reductase (Homo sapiens, UniProt P04035); set-up: species or system Escherichia coli;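 further: enzyme inhibition assay of HMG-CoA reductase using radiolabeled [14C]HMG-CoA as substrate; in other assays of this panel Not Active means under 50% inhibition at 10 µM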
T2 sequence (P04035 whole entry): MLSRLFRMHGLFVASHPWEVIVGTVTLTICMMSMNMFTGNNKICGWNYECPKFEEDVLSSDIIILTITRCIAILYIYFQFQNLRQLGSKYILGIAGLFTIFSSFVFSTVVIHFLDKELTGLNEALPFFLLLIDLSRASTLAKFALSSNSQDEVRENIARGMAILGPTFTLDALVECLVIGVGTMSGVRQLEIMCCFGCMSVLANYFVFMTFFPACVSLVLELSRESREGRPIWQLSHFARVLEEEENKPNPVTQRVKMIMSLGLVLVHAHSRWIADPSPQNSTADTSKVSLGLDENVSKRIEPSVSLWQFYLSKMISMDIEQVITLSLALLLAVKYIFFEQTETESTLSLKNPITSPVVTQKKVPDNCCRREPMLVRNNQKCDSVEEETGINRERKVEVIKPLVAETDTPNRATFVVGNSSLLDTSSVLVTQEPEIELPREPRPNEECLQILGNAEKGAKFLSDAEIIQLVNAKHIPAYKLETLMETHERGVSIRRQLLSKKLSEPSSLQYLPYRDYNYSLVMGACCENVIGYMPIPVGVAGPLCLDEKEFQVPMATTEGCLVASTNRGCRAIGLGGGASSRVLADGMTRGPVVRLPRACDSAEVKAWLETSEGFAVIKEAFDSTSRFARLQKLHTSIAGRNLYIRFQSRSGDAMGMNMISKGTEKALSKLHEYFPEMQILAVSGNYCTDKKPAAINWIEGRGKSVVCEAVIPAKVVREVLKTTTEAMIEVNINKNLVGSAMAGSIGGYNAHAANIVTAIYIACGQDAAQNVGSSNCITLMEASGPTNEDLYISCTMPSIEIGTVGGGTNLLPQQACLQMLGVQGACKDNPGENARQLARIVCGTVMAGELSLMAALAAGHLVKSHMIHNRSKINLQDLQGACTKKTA

Cytochrome P450 3A4 = Cytochrome P450 3A4 (Homo sapiens, UniProt P08684); details: bti-tn-5b1-4; further: in other assays of this panel Not Active means under 50% inhibition at 10 µM
[4] = DRUGMATRIX: Tumor Necrosis Factor (TNF), Non-Selective radioligand binding (ligand: [125I] TNF-alpha); assay type: cell membranes, Membrane; details: u-937; Not Active = under 50% inhibition at 10 µM
[5] = DRUGMATRIX: Leukotriene, BLT (LTB4) radioligand binding (ligand: [3H]LTB4); assay type: cell membranes, Membrane; details: u-937, Not Active = under 50% inhibition at 10 µM
Leukotriene C4 synthase = biological target: T3, Leukotriene C4 synthase (Cavia porcellus, UniProt A6XA80); assay type: tissue-based, Lung
T3 sequence (A6XA80 whole entry): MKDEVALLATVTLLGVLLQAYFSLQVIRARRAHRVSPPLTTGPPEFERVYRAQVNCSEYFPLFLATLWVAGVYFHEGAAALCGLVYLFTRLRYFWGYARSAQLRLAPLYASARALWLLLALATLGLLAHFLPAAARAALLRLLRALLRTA

Sequence of Cytochrome P450 3A4 (P08684 whole entry): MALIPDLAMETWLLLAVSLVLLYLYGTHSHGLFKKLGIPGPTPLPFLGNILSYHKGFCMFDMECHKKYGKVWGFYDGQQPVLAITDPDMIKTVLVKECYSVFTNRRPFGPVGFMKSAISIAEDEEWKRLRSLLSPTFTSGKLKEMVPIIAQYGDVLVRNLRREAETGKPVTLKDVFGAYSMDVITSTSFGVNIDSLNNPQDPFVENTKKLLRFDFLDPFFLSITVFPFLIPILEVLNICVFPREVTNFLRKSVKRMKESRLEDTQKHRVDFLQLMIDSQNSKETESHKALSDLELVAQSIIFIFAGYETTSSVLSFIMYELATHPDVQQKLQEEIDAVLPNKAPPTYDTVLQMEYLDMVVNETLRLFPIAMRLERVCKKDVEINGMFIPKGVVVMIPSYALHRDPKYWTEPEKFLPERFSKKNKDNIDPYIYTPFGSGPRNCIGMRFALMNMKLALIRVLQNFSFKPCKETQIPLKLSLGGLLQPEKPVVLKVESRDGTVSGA

| SMILES | IC50 [1] | IC50 (Glycine receptor) | IC50 [2] | Ki [2] | IC50 [3] | IC50 (Cytochrome P450 3A4) | Ki (Cytochrome P450 3A4) | IC50 [4] | Ki [4] | IC50 [5] | Ki [5] | IC50 (Leukotriene C4 synthase) | IC50 ([2]; read-out: IC50) [nM] | Ki ([2]; read-out: Ki) [nM] | IC50 ([5]; read-out: IC50) [nM] | Ki ([5]; read-out: Ki) [nM] |
| --- | --- | --- | --- | --- | --- | --- | --- | --- | --- | --- | --- | --- | --- | --- | --- | --- |
| CC(C)(C)NCC(O)COc1cccc2c1CC(O)C(O)C2 (centres undefined) [NADOLOL] | Not Active | Not Active | Not Active | Not Active | Not Active | Not Active | Not Active | Not Active | Not Active | Not Active | Not Active | Not Active | – | – | – | – |
| COc1ccnc(C[S+]([O-])c2nc3ccc(OC(F)F)cc3[nH]2)c1OC (centres undefined) [PANTOPRAZOLE] | Not Active | Not Active | Not Active | Not Active | Not Active | Not Active | Not Active | Not Active | Not Active | Not Active | Not Active | Not Active | – | – | – | – |
| CCCCC1=NC2(CCCC2)C(=O)N1Cc1ccc(-c2ccccc2-c2nnn[nH]2)cc1 [IRBESARTAN] | Not Active | Not Active | Not Active | Not Active | Not Active | Not Active | Not Active | Not Active | Not Active | Not Active | Not Active | Not Active | – | – | – | – |
| COC(=O)Nc1nc2cc(C(=O)c3ccc(F)cc3)ccc2[nH]1 [FLUBENDAZOLE] | Not Active | Not Active | Not Active | Not Active | Not Active | Not Active | Not Active | Not Active | Not Active | Not Active | Not Active | Not Active | – | – | – | – |
| CN(C)CCC=C1c2ccccc2CCc2ccccc21 [AMITRIPTYLINE] | Not Active | Not Active | – | – | Not Active | Not Active | Not Active | Not Active | Not Active | Not Active | Not Active | Not Active | 1990 | 1770 | – | – |
| Cc1ccc(C)c(OCCCC(C)(C)C(=O)O)c1 [GEMFIBROZIL] | Not Active | Not Active | Not Active | Not Active | Not Active | Not Active | Not Active | Not Active | Not Active | Not Active | Not Active | Not Active | – | – | – | – |
| C[N+](C)(C)C[C@H](O)CC(=O)[O-] [LEVOCARNITINE] | Not Active | Not Active | Not Active | Not Active | Not Active | Not Active | Not Active | Not Active | Not Active | Not Active | Not Active | Not Active | – | – | – | – |
| CNC1=Nc2ccc(Cl)cc2C(c2ccccc2)=[N+]([O-])C1 [CHLORDIAZEPOXIDE] | Not Active | Not Active | Not Active | Not Active | Not Active | Not Active | Not Active | Not Active | Not Active | Not Active | Not Active | Not Active | – | – | – | – |
| CC(O)COC[C@H]1O[C@@H]2O[C@H]3[C@H](O)[C@@H](O)[C@@H](O[C@H]4[C@H](O)[C@@H](O)[C@@H](O[C@H]5[C@H](O)[C@@H](O)[C@@H](O[C@H]6[C@H](O)[C@@H](O)[C@@H](O[C@H]7[C@H](O)[C@@H](O)[C@@H](O[C@H]8[C@H](O)[C@@H](O)[C@@H](O[C@H]1[C@H](O)[C@H]2O)O[C@@H]8COCC(C)O)O[C@@H]7COCC(C)O)O[C@@H]6COCC(C)O)O[C@@H]5COCC(C)O)O[C@@H]4COCC(C)O)O[C@@H]3COCC(C)O (stereo partly drawn) [2-HYDROXYPROPYL-BETA-CYCLODEXTRIN] | Not Active | Not Active | Not Active | Not Active | Not Active | Not Active | Not Active | Not Active | Not Active | Not Active | Not Active | Not Active | – | – | – | – |
| C[C@]12CC[C@@H]3c4ccc(O)cc4CC[C@H]3[C@@H]1C[C@@H](O)[C@@H]2O [ESTRIOL] | Not Active | Not Active | Not Active | Not Active | Not Active | Not Active | Not Active | Not Active | Not Active | Not Active | Not Active | Not Active | – | – | – | – |
| O=C(O)P(=O)(O)O [FOSCARNET] | Not Active | Not Active | Not Active | Not Active | Not Active | Not Active | Not Active | Not Active | Not Active | Not Active | Not Active | Not Active | – | – | – | – |
| CC1=NN(c2ccccc2)C(=O)C1 [EDARAVONE] | Not Active | Not Active | Not Active | Not Active | Not Active | Not Active | Not Active | Not Active | Not Active | Not Active | Not Active | Not Active | – | – | – | – |
| CCCNC(C)C(=O)Nc1ccccc1C (centres undefined) [PRILOCAINE] | Not Active | Not Active | Not Active | Not Active | Not Active | Not Active | Not Active | Not Active | Not Active | Not Active | Not Active | Not Active | – | – | – | – |
| C[C@H]1O[C@H](O[C@H]2[C@H](O)[C@@H](O)[C@@H](O[C@H]3[C@H](O)[C@@H](O)C(O)O[C@@H]3CO)O[C@@H]2CO)[C@H](O)[C@@H](O)[C@@H]1N[C@H]1C=C(CO)[C@@H](O)[C@H](O)[C@H]1O (some centres undefined) [ACARBOSE] | Not Active | Not Active | Not Active | Not Active | Not Active | Not Active | Not Active | Not Active | Not Active | Not Active | Not Active | Not Active | – | – | – | – |
| CN(C)C(=N)NC(=N)N [METFORMIN] | Not Active | Not Active | Not Active | Not Active | Not Active | Not Active | Not Active | Not Active | Not Active | Not Active | Not Active | Not Active | – | – | – | – |
| CCc1ccc(CCOc2ccc(CC3SC(=O)NC3=O)cc2)nc1 (centres undefined) [PIOGLITAZONE] | Not Active | Not Active | Not Active | Not Active | Not Active | Not Active | Not Active | Not Active | Not Active | – | – | Not Active | – | – | 86900 | 22100 |
| CN1CCN(C(c2ccccc2)c2ccccc2)CC1 [CYCLIZINE] | Not Active | Not Active | – | – | Not Active | Not Active | Not Active | Not Active | Not Active | Not Active | Not Active | Not Active | 2520 | 2240 | – | – |
